Assay results reported in US7153841B2, “Metal substituted non-centrosimmetrical phthalocyanine analogues, their preparation and use in photodynamic therapy and in vivo diagnostic” (L. Molteni & C. Dei Fratelli Alitti Societa Di Esercizio …, priority 2001, dated 2006).

Legend:
Assay type in all cases: cell-based
human fibroblasts = experiment: Lack of non specific toxicity on human fibroblasts, with or without red light; details: DMEM 10% FCS, up to 40 μM
Method: The lack of non specific toxicity has been assessed by using human fibroblasts cultured for six days. Aliquots of the compound according to Ex. 4 at various concentrations have been added to cells in DMEM 10% FCS. After treatment the cell were irradiated for 10 min with red light (Intralux 4000 equipped with filter BP700/100Chroma Technology Corp.). In a parallel experiment cells were treated with the same amounts of compound of Ex. 4, however no light was provided.

[1] = molecular target: T1, repeat D of type III FN like of human Tenascin (TN) (Homo sapiens, UniProt P24821); experiment: Binding specificity of labelled antibody by immunohystochemistry on human fibroblasts (GM6114); details: shown by immunohystochemistry experiments
T1 construct: determined by immunohystochemistry on human fibroblasts (GM6114); endogenous in cells; host or cells: human fibroblasts (GM6114)
Description: Monoclonal Antibody α-D specific for the repeat D of type III FN like of human Tenascin (TN) (Balza et al. FEBS, 332,39 1993) has been labelled by using the compound of Ex. 4.
The labelling procedure has been carried out with the monoclonal bound to the Sepharose 4b immobilised antigen, represented from the recombinant TN containing repeats B,C,D type III FN-like.

C. albicans = experiment: Photoinactivation of C. albicans (CFU vs. concentration, FIG. 1)
Description: FIG. 1 represents the variation of the colony forming units (CFU) of C. albicans vs. the concentration (μM) of the compounds according to Examples 7 and 8,indicated in the FIGURE as MRLP 090 and MRLP 091 respectively.
The following example refer to the activity against C. albicans.

T1 sequence (P24821 23-2201): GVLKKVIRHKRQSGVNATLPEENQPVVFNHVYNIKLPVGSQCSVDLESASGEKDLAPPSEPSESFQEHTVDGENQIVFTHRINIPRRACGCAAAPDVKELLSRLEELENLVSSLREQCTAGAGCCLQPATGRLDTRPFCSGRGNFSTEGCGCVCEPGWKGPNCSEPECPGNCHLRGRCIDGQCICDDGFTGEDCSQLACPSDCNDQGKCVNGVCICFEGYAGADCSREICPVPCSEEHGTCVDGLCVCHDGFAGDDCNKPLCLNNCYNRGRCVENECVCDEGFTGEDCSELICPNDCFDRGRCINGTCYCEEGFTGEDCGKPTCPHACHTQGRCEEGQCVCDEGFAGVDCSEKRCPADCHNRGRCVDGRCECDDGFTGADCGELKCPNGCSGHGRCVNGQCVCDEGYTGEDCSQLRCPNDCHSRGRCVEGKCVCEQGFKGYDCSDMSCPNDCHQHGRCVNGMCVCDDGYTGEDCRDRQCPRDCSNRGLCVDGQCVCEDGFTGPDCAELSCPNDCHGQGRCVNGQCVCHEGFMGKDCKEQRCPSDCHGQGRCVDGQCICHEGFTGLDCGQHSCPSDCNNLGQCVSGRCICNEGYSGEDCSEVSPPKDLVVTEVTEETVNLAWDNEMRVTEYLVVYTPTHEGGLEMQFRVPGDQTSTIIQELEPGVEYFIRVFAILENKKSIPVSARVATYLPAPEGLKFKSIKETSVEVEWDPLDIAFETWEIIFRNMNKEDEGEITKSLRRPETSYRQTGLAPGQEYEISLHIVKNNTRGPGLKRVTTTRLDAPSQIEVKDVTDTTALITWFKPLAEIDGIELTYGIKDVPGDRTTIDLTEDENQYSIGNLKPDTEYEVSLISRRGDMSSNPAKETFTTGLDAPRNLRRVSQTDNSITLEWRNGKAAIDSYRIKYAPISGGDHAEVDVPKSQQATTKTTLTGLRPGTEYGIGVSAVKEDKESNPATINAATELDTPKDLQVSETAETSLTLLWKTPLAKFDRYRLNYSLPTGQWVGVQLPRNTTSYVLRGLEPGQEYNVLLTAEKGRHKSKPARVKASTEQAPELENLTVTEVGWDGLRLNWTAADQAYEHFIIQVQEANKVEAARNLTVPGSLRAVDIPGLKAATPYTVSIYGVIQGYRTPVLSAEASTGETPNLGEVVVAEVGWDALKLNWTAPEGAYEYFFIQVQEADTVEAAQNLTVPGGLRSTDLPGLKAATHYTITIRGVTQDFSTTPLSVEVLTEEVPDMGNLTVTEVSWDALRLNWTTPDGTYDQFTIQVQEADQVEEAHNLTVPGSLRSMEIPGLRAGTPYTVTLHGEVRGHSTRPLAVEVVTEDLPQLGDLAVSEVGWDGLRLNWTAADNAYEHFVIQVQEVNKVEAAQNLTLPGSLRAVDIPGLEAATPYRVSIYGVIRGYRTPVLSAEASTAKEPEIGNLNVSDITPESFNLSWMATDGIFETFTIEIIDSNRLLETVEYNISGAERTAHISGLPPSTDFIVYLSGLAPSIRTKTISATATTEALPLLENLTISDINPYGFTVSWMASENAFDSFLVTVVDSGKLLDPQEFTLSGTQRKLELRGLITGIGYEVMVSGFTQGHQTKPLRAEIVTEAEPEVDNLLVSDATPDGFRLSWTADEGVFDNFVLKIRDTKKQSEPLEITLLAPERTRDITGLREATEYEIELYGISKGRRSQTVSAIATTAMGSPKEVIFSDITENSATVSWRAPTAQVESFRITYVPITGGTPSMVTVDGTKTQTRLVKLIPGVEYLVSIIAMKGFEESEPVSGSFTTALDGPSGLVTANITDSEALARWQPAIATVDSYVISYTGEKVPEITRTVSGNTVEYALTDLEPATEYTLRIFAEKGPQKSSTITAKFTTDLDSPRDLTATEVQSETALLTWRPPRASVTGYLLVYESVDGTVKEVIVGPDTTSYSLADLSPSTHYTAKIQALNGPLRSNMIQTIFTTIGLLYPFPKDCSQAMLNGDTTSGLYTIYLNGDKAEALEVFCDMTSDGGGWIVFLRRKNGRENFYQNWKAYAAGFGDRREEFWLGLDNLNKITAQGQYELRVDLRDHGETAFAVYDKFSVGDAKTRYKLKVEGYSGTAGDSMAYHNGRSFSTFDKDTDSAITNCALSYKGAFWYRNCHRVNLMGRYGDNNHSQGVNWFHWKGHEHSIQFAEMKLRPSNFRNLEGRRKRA

2-[(4-hydroxycarbonyl)phenoxy]-1(4),8(11),15(18),22(25)-tri[2 -(morfolin-1-yl) ethoxy] zinc(II)phthalocyanine [Example 4]
mortality or morphology in comparison to not treated-not irradiated cells (human fibroblasts; irradiated 10 min with red light): No differences in mortality or morphology
mortality or morphology in comparison to not treated-not irradiated cells (human fibroblasts; no light provided): No differences in mortality or morphology
aggregation or protein denaturation of the antibody on labelling [1]: does not cause aggregation to occur or protein denaturation

2-[(4-hydroxycarbonyl)phenoxy]-8(11),15(18),22(25)-tri[3-(trimethylammonium) phenoxy]zinc(II) phthalocyanine triiodide [Example 8]
photoinactivation of C. albicans (variation of colony forming units vs. concentration, μM) (C. albicans): photoinactivation

2-[(4-hydroxycarbonyl)phenoxy]-9(10),16(17),23(24)-tri[3-(trimethylammonium) phenoxy]zinc(II)phthalocyanine triiodide [Example 7]
photoinactivation of C. albicans (variation of colony forming units vs. concentration, μM) (C. albicans): photoinactivation
